Assay [1] concerns the target T1, CyHV-2 RR (ORF23-GST + ORF141-His) (Cyprinid herpesvirus 2, UniProt K7PBF0+K7PBQ3).
T1 construct: gene CyHV2_ORF23; recombinant ORF23-GST and ORF141-His mixed in vitro; RR described in general as two homodimers (alpha2beta2)
Briefly: RR activity, dCDP formation by HPLC after borate column. The note with it: CDP 80 μM with ATP 2.7 mM, dATP, dTTP, dGTP, UDP, ADP, GDP; both subunits needed; 50 mM HEPES-KOH, 5 mM MgCl2, 50 mM DTT, 20 mM ferrous ammonium sulfate; 1 h at 4°C. The format is biochemical.

Assay [2] deals with T1, CyHV-2 RR (ORF23-GST + ORF141-His). Described as above. The format is biochemical. The conditions noted are these: hydroxyurea 80 μM; 10 μg of both recombinant proteins; CDP 80 μM, ATP 2.7 mM, other nucleotides; 50 mM HEPES-KOH, 5 mM MgCl2, 50 mM DTT, 20 mM ferrous ammonium sulfate; 1 h at 4°C.

Each structure is given as a SMILES string.

For `Nc1ccn([C@@H]2O[C@H](COP(=O)(O)OP(=O)(O)O)[C@@H](O)[C@H]2O)c(=O)n1` [CDP], the “RR activity, dCDP formation by HPLC after borate column” value in assay [1] is “interaction between ORF23-GST and ORF141-His proteins is essential for catalyzing the reduction of CDP to”.
`NC(=O)NO` [hydroxyurea]: in assay [2], the “% activity reduction at 80 μM” value worked out at 52%.

The values above are taken from article PMC10151572, “The identification of viral ribonucleotide reductase encoded by ORF23 and ORF141 genes and effect on CyHV-2 replication” (Frontiers in Microbiology, 2023).
